Test results: ChEMBL document CHEMBL3885861, “Open TG-GATES”

Organism: Rattus norvegicus
Assay: Open TG-GATES - Regimen: Daily Repeat
Assay type: toxicity, organism-based, Sprague-Dawley
Design: regimen Daily Repeat, gender Male, age 6 weeks
Conditions: in vivo, po, 300 mg/kg, route gavage, dose level Middle; for APTT / Bas / Eos / Fbg / Hb / Ht / Lym / MCH / MCHC / MCV / Mono / Neu / PT / Plat / RBC / Ret / WBC: tissue Blood; for KIDNEY_L / KIDNEY_R / KIDNEY_TOTAL: tissue Kidney; for LIVER: tissue Liver; for A/G / ALP / ALT / AST / BUN / CRE / Ca / Cl / DBIL / GLC / IP / K / LDH / Na / PL / RALB / TBIL / TC / TG / TP / gamma-GTP: tissue Plasma

## CC(=O)[C@@]1(O)CC[C@H]2[C@@H]3C=C(Cl)C4=CC(=O)CC[C@]4(C)[C@H]3CC[C@@]21C [CHLORMADINONE]
72 h, time 3 day
  TERMINAL_BW: 228.1 g
  APTT: 27.6 s
  Bas: 0%
  Eos: 1%
  Fbg: 334.4 mg/dL
  Hb: 14.1 g/dL
  Ht: 42.3%
  Lym: 76.8%
  MCH: 20.6 pg
  MCHC: 33.2%
  MCV: 62 fL
  Mono: 3.4%
  Neu: 18.4%
  PT: 14.8 s
  Plat: 130.2 x10_4/uL
  RBC: 684 x10_4/ul
  Ret: 5.9%
  WBC: 96.1 x10_2/uL
  KIDNEY_L: 1 g
  KIDNEY_R: 1 g
  KIDNEY_TOTAL: 1.9 g
  LIVER: 11 g
  A/G: 1.2
  ALP: 1623.2 IU/L
  ALT: 51 IU/L
  AST: 76.4 IU/L
  BUN: 17.2 mg/dL
  CRE: 0.2 mg/dL
  Ca: 11 mg/dL
  Cl: 106 meq/L
  DBIL: 0 mg/dL
  GLC: 194.2 mg/dL
  IP: 7.5 mg/dL
  K: 4.6 meq/L
  LDH: 243.2 IU/L
  Na: 141.4 meq/L
  PL: 172.4 mg/dL
  RALB: 3.2 g/dL
  TBIL: 0.008 mg/dL
  TC: 77 mg/dL
  TG: 181.4 mg/dL
  TP: 5.8 g/dL
  gamma-GTP: 1.4 IU/L
[…], time 7 day
  TERMINAL_BW: 257.8 g
  APTT: 29.5 s
  Bas: 0%
  Eos: 0.6%
  Fbg: 335.8 mg/dL
  Hb: 14.7 g/dL
  Ht: 42.9%
  Lym: 86%
  MCH: 20.8 pg
  MCHC: 34.2%
  MCV: 60.9 fL
  Mono: 2.4%
  Neu: 10.2%
  PT: 14.8 s
  Plat: 129.9 x10_4/uL
  RBC: 704.2 x10_4/ul
  Ret: 4.3%
  WBC: 119.7 x10_2/uL
  KIDNEY_L: 1 g
  KIDNEY_R: 1 g
  KIDNEY_TOTAL: 2.1 g
  LIVER: 12.6 g
  A/G: 1.1
  ALP: 1379.4 IU/L
  ALT: 53 IU/L
  AST: 70.8 IU/L
  BUN: 19.4 mg/dL
  CRE: 0.2 mg/dL
  Ca: 10.9 mg/dL
  Cl: 105.2 meq/L
  DBIL: 0 mg/dL
  GLC: 194.6 mg/dL
  IP: 7.4 mg/dL
  K: 4.6 meq/L
  LDH: 198.8 IU/L
  Na: 139.4 meq/L
  PL: 182.2 mg/dL
  RALB: 3.2 g/dL
  TBIL: 0 mg/dL
  TC: 91.2 mg/dL
  TG: 205.8 mg/dL
  TP: 6 g/dL
  gamma-GTP: 1.8 IU/L
[…], time 14 day
  TERMINAL_BW: 297.5 g
  APTT: 28.4 s
  Bas: 0%
  Eos: 1%
  Fbg: 326.6 mg/dL
  Hb: 15.2 g/dL
  Ht: 44.7%
  Lym: 78%
  MCH: 19.3 pg
  MCHC: 34%
  MCV: 56.8 fL
  Mono: 2.6%
  Neu: 17.6%
  PT: 14.8 s
  Plat: 105.8 x10_4/uL
  RBC: 787.4 x10_4/ul
  Ret: 3.1%
  WBC: 84.6 x10_2/uL
  KIDNEY_L: 1.1 g
  KIDNEY_R: 1.1 g
  KIDNEY_TOTAL: 2.2 g
  LIVER: 13.1 g
  A/G: 1.1
  ALP: 1447.6 IU/L
  ALT: 44.2 IU/L
  AST: 67 IU/L
  BUN: 20 mg/dL
  CRE: 0.2 mg/dL
  Ca: 10.5 mg/dL
  Cl: 106.8 meq/L
  DBIL: 0 mg/dL
  GLC: 196.2 mg/dL
  IP: 6.9 mg/dL
  K: 4.5 meq/L
  LDH: 161.4 IU/L
  Na: 141.4 meq/L
  PL: 171.6 mg/dL
  RALB: 3.1 g/dL
  TBIL: 0.002 mg/dL
  TC: 83.8 mg/dL
  TG: 173 mg/dL
  TP: 6 g/dL
  gamma-GTP: 1.8 IU/L
[…], time 28 day
  TERMINAL_BW: 346.1 g
  APTT: 28 s
  Bas: 0%
  Eos: 1%
  Fbg: 313.2 mg/dL
  Hb: 16.2 g/dL
  Ht: 46.4%
  Lym: 82.8%
  MCH: 18.9 pg
  MCHC: 34.9%
  MCV: 54 fL
  Mono: 2.2%
  Neu: 12.8%
  PT: 14.8 s
  Plat: 92.9 x10_4/uL
  RBC: 860 x10_4/ul
  Ret: 2%
  WBC: 105.1 x10_2/uL
  KIDNEY_L: 1.2 g
  KIDNEY_R: 1.2 g
  KIDNEY_TOTAL: 2.4 g
  LIVER: 13.4 g
  A/G: 1.1
  ALP: 1248.8 IU/L
  ALT: 61.6 IU/L
  AST: 76.6 IU/L
  BUN: 19.4 mg/dL
  CRE: 0.2 mg/dL
  Ca: 10.6 mg/dL
  Cl: 105.6 meq/L
  DBIL: 0 mg/dL
  GLC: 186.8 mg/dL
  IP: 6 mg/dL
  K: 4 meq/L
  LDH: 156.2 IU/L
  Na: 141.2 meq/L
  PL: 171 mg/dL
  RALB: 3.3 g/dL
  TBIL: 0.012 mg/dL
  TC: 89.2 mg/dL
  TG: 153.6 mg/dL
  TP: 6.3 g/dL
  gamma-GTP: 2.4 IU/L
